pKd: −log10 of the molar value. Active and inactive are the calls of the source.
What was measured:
[1] = target: T1, Tyrosine-protein kinase Tec (Homo sapiens, UniProt P42680)
T1 sequence (P42680 whole entry): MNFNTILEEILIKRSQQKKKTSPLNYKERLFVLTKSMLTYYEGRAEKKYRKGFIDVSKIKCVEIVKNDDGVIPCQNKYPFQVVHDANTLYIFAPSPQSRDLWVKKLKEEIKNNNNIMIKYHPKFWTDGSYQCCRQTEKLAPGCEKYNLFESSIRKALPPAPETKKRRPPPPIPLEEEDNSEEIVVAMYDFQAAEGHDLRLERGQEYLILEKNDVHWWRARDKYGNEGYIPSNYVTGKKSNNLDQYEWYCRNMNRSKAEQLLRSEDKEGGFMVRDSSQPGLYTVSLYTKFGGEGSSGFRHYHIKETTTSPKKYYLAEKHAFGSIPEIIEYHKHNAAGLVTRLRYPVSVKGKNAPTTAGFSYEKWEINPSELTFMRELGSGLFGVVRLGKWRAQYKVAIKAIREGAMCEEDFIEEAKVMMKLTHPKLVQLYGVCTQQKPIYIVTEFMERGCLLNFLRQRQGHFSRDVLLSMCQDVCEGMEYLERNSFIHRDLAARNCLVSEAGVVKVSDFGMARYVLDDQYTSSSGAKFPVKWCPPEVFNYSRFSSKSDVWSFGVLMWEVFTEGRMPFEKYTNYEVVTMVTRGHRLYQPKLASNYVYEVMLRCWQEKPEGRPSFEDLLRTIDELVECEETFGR

[2] = target: T2, Dynamin-like GTPase OPA1, mitochondrial (Homo sapiens, UniProt O60313)
T2 sequence (O60313 whole entry): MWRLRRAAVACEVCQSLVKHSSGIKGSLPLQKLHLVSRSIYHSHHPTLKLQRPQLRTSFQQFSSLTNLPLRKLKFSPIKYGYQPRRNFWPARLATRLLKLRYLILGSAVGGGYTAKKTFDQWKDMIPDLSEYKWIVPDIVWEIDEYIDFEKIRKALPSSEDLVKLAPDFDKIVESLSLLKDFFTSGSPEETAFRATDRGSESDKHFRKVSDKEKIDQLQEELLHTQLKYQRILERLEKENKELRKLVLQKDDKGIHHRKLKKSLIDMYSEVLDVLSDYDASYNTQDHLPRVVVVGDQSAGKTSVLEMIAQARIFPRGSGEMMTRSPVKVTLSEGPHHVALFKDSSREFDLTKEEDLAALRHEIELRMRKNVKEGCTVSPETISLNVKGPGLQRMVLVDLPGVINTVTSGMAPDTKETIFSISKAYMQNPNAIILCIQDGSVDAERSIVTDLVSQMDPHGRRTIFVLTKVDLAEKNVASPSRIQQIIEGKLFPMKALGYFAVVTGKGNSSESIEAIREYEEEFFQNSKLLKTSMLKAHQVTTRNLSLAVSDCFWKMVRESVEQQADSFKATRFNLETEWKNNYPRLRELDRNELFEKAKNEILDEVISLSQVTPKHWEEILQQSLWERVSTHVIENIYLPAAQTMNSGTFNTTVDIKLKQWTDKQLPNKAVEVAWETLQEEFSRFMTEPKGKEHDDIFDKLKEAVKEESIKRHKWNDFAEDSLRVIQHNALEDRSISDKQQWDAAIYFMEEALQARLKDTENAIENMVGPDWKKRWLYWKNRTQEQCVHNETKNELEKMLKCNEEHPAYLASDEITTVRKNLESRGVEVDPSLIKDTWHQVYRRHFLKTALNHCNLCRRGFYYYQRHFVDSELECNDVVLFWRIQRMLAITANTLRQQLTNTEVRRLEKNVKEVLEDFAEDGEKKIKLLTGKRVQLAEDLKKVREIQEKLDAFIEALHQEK

[3] = target: T3, Heme oxygenase 2 (Homo sapiens, UniProt P30519)
T3 sequence (P30519 whole entry): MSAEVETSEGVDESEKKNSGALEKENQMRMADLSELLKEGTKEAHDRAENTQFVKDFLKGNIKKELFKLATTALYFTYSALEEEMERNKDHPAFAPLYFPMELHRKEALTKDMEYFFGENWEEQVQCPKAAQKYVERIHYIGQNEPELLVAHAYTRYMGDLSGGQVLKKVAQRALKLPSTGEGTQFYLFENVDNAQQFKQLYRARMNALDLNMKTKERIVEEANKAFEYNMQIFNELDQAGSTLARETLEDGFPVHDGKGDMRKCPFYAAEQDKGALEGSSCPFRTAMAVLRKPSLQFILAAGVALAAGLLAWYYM

[4] = target: Epithelial discoidin domain-containing receptor 1 (Homo sapiens, UniProt Q08345)
Chain of Epithelial discoidin domain-containing receptor 1 (Q08345 whole entry, the tested form may be a part): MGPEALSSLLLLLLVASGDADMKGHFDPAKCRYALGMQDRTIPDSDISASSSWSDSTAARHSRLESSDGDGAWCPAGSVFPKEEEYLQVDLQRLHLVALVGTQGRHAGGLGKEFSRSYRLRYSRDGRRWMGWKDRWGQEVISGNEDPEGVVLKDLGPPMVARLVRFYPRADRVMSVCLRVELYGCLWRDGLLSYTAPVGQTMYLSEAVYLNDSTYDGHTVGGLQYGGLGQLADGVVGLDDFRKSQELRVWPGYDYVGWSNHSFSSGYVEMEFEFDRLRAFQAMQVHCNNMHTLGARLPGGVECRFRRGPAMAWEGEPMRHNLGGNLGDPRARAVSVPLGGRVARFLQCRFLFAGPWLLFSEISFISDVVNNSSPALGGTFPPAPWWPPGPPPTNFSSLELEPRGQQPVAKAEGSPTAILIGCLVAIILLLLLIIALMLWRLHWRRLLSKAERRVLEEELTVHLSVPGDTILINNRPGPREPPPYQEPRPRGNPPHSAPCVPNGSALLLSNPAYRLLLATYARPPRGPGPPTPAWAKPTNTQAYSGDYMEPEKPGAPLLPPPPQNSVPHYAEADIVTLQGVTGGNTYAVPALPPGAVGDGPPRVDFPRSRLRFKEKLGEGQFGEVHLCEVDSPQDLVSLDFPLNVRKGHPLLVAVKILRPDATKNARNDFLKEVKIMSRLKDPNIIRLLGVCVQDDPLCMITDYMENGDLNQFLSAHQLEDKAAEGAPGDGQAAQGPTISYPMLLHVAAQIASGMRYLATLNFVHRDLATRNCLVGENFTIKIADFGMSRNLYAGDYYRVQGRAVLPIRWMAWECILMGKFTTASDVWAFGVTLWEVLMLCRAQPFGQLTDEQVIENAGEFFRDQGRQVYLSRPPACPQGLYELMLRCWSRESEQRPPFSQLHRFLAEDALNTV

[5] = target: T4, Ephrin type-B receptor 3 (Homo sapiens, UniProt P54753)
T4 sequence (P54753 whole entry): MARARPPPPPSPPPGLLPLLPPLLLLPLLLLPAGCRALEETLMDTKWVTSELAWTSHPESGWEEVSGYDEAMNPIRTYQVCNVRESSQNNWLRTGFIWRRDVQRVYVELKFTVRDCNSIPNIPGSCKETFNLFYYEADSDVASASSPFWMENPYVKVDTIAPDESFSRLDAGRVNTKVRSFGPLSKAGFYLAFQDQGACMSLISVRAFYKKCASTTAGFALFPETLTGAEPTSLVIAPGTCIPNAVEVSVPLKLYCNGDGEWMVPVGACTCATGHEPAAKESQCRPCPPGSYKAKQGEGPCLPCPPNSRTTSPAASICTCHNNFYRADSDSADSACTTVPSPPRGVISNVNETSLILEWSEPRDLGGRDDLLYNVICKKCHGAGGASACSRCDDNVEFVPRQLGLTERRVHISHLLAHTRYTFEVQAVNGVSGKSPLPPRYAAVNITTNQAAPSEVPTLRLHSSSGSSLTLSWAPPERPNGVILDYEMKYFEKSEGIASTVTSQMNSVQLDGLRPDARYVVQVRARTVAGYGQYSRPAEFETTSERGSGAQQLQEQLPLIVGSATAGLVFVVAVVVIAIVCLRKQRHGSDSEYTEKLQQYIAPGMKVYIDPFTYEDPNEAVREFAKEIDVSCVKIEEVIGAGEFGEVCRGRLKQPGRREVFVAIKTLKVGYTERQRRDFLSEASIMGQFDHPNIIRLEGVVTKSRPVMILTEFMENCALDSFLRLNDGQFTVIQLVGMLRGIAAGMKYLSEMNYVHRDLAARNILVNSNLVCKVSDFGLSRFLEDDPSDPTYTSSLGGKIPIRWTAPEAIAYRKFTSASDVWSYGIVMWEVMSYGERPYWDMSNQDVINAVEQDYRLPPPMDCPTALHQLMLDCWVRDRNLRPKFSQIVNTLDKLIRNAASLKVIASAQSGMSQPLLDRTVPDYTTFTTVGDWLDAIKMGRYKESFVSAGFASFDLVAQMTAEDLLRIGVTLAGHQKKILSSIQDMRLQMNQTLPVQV
Further: in the data inactive means no Kd found up to 30 µM.

COC(=O)N[C@@H](C)CNc1nccc(-c2cn(C(C)C)nc2-c2cc(Cl)cc(NS(C)(=O)=O)c2F)n1 [ENCORAFENIB]
inactive: Kd [1] > 30 µM | Kd [2] > 30 µM | Kd [3] > 30 µM | Kd [4] > 30 µM | Kd [5] > 30 µM

Cc1cc(Nc2cc(N3CCN(C)CC3)nc(/C=C/c3ccccc3)n2)n[nH]1 [ENMD-2076]
inactive: Kd [1] > 30 µM | Kd [2] > 30 µM | Kd [3] > 30 µM | Kd [5] > 30 µM
active: Kd [4] 0.755 µM

CO[C@H]1C[C@@H]2CC[C@@H](C)[C@@](O)(O2)C(=O)C(=O)N2CCCC[C@H]2C(=O)O[C@H]([C@H](C)C[C@@H]2CC[C@@H](OCCO)[C@H](OC)C2)CC(=O)[C@H](C)/C=C(\C)[C@@H](O)[C@@H](OC)C(=O)[C@H](C)C[C@H](C)/C=C/C=C/C=C/1C [EVEROLIMUS]
inactive: Kd [1] > 30 µM | Kd [2] > 30 µM | Kd [3] > 30 µM | Kd [4] > 30 µM | Kd [5] > 30 µM

O=C1NC(=O)/C(=C/c2ccc3nccc(-c4ccncc4)c3c2)S1 [GSK-1059615]
inactive: Kd [1] > 30 µM | Kd [2] > 30 µM | Kd [3] > 30 µM | Kd [4] > 30 µM | Kd [5] > 30 µM

CC[C@H](Nc1ncnc2[nH]cnc12)c1nc2cccc(F)c2c(=O)n1-c1ccccc1 [IDELALISIB]
inactive: Kd [1] > 30 µM | Kd [2] > 30 µM | Kd [3] > 30 µM | Kd [4] > 30 µM | Kd [5] > 30 µM

Cn1cc(-c2ccc3nnc(C(F)(F)c4ccc5ncccc5c4)n3n2)cn1 [JNJ-38877605]
inactive: Kd [1] > 30 µM | Kd [2] > 30 µM | Kd [3] > 30 µM | Kd [4] > 30 µM | Kd [5] > 30 µM

COC(=O)[C@@]1(O)C[C@H]2O[C@]1(C)n1c3ccccc3c3c4c(c5c6ccccc6n2c5c31)C(=O)NC4 [K-252A]
inactive: Kd [1] > 30 µM | Kd [2] > 30 µM | Kd [3] > 30 µM | Kd [4] > 30 µM | Kd [5] > 30 µM

COc1cc2nccc(Oc3ccc(NC(=O)NC4CC4)c(Cl)c3)c2cc1C(N)=O [LENVATINIB]
inactive: Kd [1] > 30 µM | Kd [2] > 30 µM | Kd [3] > 30 µM | Kd [5] > 30 µM
active: Kd [4] 0.046 µM

Cc1c(F)cc(C(=O)NC2CC2)cc1-c1ccc(C(=O)NCC(C)(C)C)cn1 [LOSMAPIMOD]
inactive: Kd [1] > 30 µM | Kd [2] > 30 µM | Kd [3] > 30 µM | Kd [4] > 30 µM | Kd [5] > 30 µM

Cn1cc(-c2ccc(F)c(C(F)(F)F)c2)nc1C1CCN(c2ncnc3[nH]ncc23)CC1 [LY-2584702]
inactive: Kd [1] > 30 µM | Kd [2] > 30 µM | Kd [3] > 30 µM | Kd [4] > 30 µM | Kd [5] > 30 µM

O=C(O)[C@]1(Cc2cccc(Nc3nccs3)n2)CC[C@@H](Oc2cccc(Cl)c2F)CC1 [MK-5108]
inactive: Kd [2] > 30 µM | Kd [3] > 30 µM | Kd [5] > 30 µM
active: Kd [1] 0.707 µM | Kd [4] 1.22 µM

C1=C/COCc2cc(ccc2OCCN2CCCC2)Nc2nccc(n2)-c2cccc(c2)COC/1 [PACRITINIB]
active: Kd [4] 71.5 µM
inactive: Kd [1] > 30 µM | Kd [2] > 30 µM | Kd [3] > 30 µM | Kd [5] > 30 µM

Cc1ccc(-n2nc(C(C)(C)C)cc2NC(=O)NCc2cc(F)ccc2Oc2ccc3c(cnn3CCO)c2)cc1 [PEXMETINIB]
inactive: Kd [1] > 30 µM | Kd [2] > 30 µM | Kd [3] > 30 µM
active: Kd [4] 0.363 µM
4.55: pKd [5]

OCCn1cc(-c2cnc3nnn(Cc4ccc5ncccc5c4)c3n2)cn1 [PF-04217903]
inactive: Kd [1] > 30 µM | Kd [2] > 30 µM | Kd [3] > 30 µM | Kd [4] > 30 µM | Kd [5] > 30 µM

CNC(=O)c1ccc(C)c(-n2c(C)cc(OCc3ccc(F)cc3F)c(Br)c2=O)c1 [PH-797804]
inactive: Kd [1] > 30 µM | Kd [2] > 30 µM | Kd [3] > 30 µM | Kd [4] > 30 µM | Kd [5] > 30 µM

C=CC(=O)N1CCC(Oc2cc3c(Nc4ccc(Cl)c(Cl)c4F)ncnc3cc2OC)CC1 [POZIOTINIB]
inactive: Kd [2] > 30 µM | Kd [3] > 30 µM | Kd [4] > 30 µM | Kd [5] > 30 µM
active: Kd [1] 0.069 µM

CNC(=O)c1cc(Oc2ccc(NC(=O)Nc3ccc(Cl)c(C(F)(F)F)c3)c(F)c2)ccn1 [REGORAFENIB]
inactive: Kd [1] > 30 µM | Kd [2] > 30 µM | Kd [3] > 30 µM | Kd [5] > 30 µM
active: Kd [4] 0.358 µM

CN(C)C(=O)c1cc2cnc(Nc3ccc(N4CCNCC4)cn3)nc2n1C1CCCC1 [RIBOCICLIB]
inactive: Kd [1] > 30 µM | Kd [2] > 30 µM | Kd [3] > 30 µM | Kd [4] > 30 µM | Kd [5] > 30 µM

COc1cc(OC)c(/C=C/S(=O)(=O)Cc2ccc(OC)c(NCC(=O)O)c2)c(OC)c1 [RIGOSERTIB]
inactive: Kd [1] > 30 µM | Kd [2] > 30 µM | Kd [3] > 30 µM | Kd [4] > 30 µM | Kd [5] > 30 µM

CNC(=O)CN1CCC(Oc2cc3c(Nc4cccc(Cl)c4F)ncnc3cc2OC)CC1 [SAPITINIB]
inactive: Kd [1] > 30 µM | Kd [2] > 30 µM | Kd [3] > 30 µM | Kd [4] > 30 µM | Kd [5] > 30 µM

C[C@@H](c1ccc2nccn2c1)n1nnc2ncc(-c3cnn(C)c3)nc21 [SAVOLITINIB]
inactive: Kd [1] > 30 µM | Kd [2] > 30 µM | Kd [3] > 30 µM | Kd [4] > 30 µM | Kd [5] > 30 µM

Source: ChEMBL document CHEMBL3991601, “The target landscape of clinical kinase drugs” (Science, 2017)
